Key:
[1] = Challenge reaction with reduced glutathione (HPLC conversion to conjugates); type: physicochemical
Experimental: Standard solutions were prepared by dissolving compound 5, Compound 6 and {4-[(3,4-dichloro-6-fluorophenyl)amino]quinazol ine-6-yl}acrylamide (0.0146 mmol) in 1.75 ml of THF: MeOH (1:2) and glutathione (18 mg, 0.0586 mmol) in 0.5 ml of water. A 300 μL aliquot of the quinazoline standard solution (2.5 μmol) was diluted with 689 μL of THF:MeOH:H2O (1:2:1), after which 11 μL (1.25 μmol) of glutathione solution and 5.22 μL (30 μmol) of N,N′-diisopropylethylamine were added. Conversions of the quinazolines and formation of conjugates at different time points were measured by HPLC using RP (3.9×300 mm) column (mobile phase of acetonirile and acetate buffer 0.1 M (2:3) at a flow rate of 1 ml/min was used herein). The glutathione conjugates were further detected by MS.
As discussed hereinabove, EGFR blockade by irreversible inhibitors is due to the nucleophilic attack of the sulfhydryl group of Cys-773 at the receptor's ATP binding pocket on the reactive chemical group of the EGFR targeted inhibitor. In order to evaluate the chemical reactivity of the novel irreversibly EGFR inhibitors decribed herein, the degree of reactivity of the inhibitors towards the sulfhydryl group of reduced glutathione (GSH) as a nucleophile was tested. Thus, Compound 5, Compound 6 and {4-[(3,4-dichloro-6-fluorophenyl)amino]quinazoline-6-yl}acrylamide were dissolved in THF: MeOH: H2O (1:2:1), and were reacted at room temperature with half an equivalent of reduced glutathione in the presence of 12 equivalents of N,N-diisopropylethylamine. Identical aliquots of the reaction mixtures were taken at various time points and injected into reversed-phase HPLC in order to determine the conversion-rate of the various compounds into glutathione-conjugates. The characteristics of the products were determined using MS.
A study of the reaction rate as a function of the temperature was also performed. Thus, the reaction ws performed at various temperatures ranging from 0° C. and 60° C. The following activation parameters were generated: For {4-[(3,4-dichloro-6-fluorophenyl)amino]quinazoline-6-yl}acrylamide: Ea=5.24 kCalmol^−1, ΔH^#25° C.=4.64 kCalmol^−1 and ΔS^#25° C.=−61.24 Calmol^−1K^−1. For compound 5: Ea=11.4 kCalmol^−1, ΔH^#25° C.=10.80 kCalmol^−1 and ΔS^#25° C.=−41.29 Calmol^−1K^−1.
The reaction rate was calculated using the following rate equation: [formula] kobs=Ae^−Ea/RT

EGFR-TK = biological target: T1, EGFR-TK (Homo sapiens, UniProt P00533); experiment: EGFR-TK autophosphorylation inhibition in intact A431 cells (irreversibility assay, Western blot); type: cell-based; details: inhibitor concentration at which 50% inhibition was achieved eight hours post incubation, intact A431 cells, eight hours post incubation
T1 construct: The supernatant, which contained the EGFR, was collected and frozen; endogenous in cells; host or cells: A431 cells (A1: Triton X-100 lysate captured on mAb108; A2: intact cells)
Experimental: A431 cells (5×10^5) were seeded in 6-well plates and grown for 24 hours to about 90% confluence in DMEM (high glucose) containing 10% fetal calf serum (FCS) and antibiotics at 37° C. The cells were then exposed to serum-free medium, at 37° C., for 18 hours.
[…] The medium was replaced thereafter with an inhibitor/FCS-free medium and the cells were divided into two groups: cells of the first group were immediately stimulated with EGF (20 ng/ml) for 5 minutes and then washed with PBS, while cells of the second group were incubated for additional 8 hours, at 37° C. During the 8 hours period, the medium was changed three times (after 2, 4 and 8 hours). After the post-incubation period, the cells of the second group were stimulated with EGF (20 ng/ml) for 5 minutes and then washed with PBS.
Identical protein amounts from each lysate sample were loaded onto polyacrylamide gel (6% or 10%), separated by electrophoresis (Hoefer Pharmacia Biotech Inc., San Francisco, USA) and transferred to nitrocellulose membrane (power supply: EPS 500/400, Amersham Pharmacia Biotech; nitrocellulose extra blotting membranes: Sartorius AG, Goettingen, Germany). A standard high molecular weight solution was loaded as a reference. For visualization of molecular weight bands, the membrane was immersed in Ponceau reagent (0.05% Ponceau, 5% acetic acid) for a few minutes, and then washed twice with TTN (10 mM Tris pH 7.4, 0.2% TWEEN 20, 170 mM NaCl) and once with water. The membrane was blocked overnight in TTN containing 5% milk (1% fat) (blocking TTN) and incubated for 90 minutes with PY20 antiphosphotyrosine antibody (Santa Cruz Biotechnology Inc., Santa Cruz, USA) diluted 1:2,000 in blocking TTN. The membrane was then washed with TTN (3×5 minutes), incubated for 90 minutes with a horseradish peroxidase-conjugated secondary antibody (Goat anti-mouse IgG H+L, Jackson ImResearch Laboratories, Inc., diluted 1:10,000 in blocking TTN), and finally washed again with TTN (3×5 minutes).
After the incubation, the media was replaced with inhibitor/FCS-free media and the inhibition effect was measured either immediately thereafter or after 8 hours post incubation.

T1 sequence (P00533 25-1210): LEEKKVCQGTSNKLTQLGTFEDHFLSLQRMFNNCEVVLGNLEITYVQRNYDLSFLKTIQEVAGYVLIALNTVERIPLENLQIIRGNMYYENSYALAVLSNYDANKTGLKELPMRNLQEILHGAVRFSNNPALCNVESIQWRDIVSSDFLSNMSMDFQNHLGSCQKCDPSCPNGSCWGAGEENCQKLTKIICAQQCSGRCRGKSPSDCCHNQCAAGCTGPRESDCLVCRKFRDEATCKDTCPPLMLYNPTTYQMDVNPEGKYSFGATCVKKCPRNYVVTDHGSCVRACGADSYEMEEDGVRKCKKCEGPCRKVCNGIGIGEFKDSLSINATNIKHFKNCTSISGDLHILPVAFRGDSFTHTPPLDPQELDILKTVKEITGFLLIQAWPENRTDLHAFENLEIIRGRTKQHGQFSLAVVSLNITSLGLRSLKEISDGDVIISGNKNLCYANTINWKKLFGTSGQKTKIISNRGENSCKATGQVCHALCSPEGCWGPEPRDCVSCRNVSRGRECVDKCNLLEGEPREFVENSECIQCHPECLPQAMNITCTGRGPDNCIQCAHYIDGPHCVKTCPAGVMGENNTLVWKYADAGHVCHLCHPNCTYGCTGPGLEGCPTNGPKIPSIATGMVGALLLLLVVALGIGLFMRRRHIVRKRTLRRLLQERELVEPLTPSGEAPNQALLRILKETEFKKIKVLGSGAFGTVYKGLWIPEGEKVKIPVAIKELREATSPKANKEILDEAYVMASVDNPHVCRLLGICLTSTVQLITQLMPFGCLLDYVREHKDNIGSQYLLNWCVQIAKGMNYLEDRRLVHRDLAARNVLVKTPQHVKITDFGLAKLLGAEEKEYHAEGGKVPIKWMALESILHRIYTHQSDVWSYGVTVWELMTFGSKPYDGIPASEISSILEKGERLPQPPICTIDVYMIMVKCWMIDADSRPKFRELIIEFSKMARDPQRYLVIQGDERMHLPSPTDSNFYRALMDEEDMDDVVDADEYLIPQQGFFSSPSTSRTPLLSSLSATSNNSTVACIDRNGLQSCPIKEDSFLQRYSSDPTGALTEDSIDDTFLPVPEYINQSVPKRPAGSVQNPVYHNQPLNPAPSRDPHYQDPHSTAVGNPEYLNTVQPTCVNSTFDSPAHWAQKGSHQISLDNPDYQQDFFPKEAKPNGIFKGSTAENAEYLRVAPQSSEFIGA

- ΔH^# 25° C. of reaction with reduced glutathione ([1]; 25° C.): 10.80 kCalmol^−1
- ΔS^# 25° C. of reaction with reduced glutathione ([1]; 25° C.): −41.29 Calmol^−1K^−1
- activation energy Ea of reaction with reduced glutathione ([1]; temperatures from 0° C. to 60° C.): 11.4 kCalmol^−1
- IC50 (EGFR-TK): 0.01 to 0.05 µM
SMILES: O=C(CCl)Nc1ccc2ncnc(Nc3cc(Cl)c(Cl)cc3F)c2c1 [Compound 5, N-{4-[(4,5-Dichloro-2-fluoro-phenyl)amino]-quinazolin-6-yl}-2-chloroacetamide]

— US20060025430A1, “Novel irreversible inhibitors of epidermal growth factor receptor tyrosine kinase and uses thereof for therapy and diagnosis” (priority 2003, published 2006)
